In ChEMBL document CHEMBL5653610, “The novel phosphodiesterase 10A inhibitor THPP-1 has antipsychotic-like effects in rat and improves cognition in rat and rhesus monkey” (Neuropharmacology, 2013):
Activity calls are given as the source filed them. No cut-off for these calls is given here.

How the values were obtained:
[1] = molecular target: T1, cAMP and cAMP-inhibited cGMP 3',5'-cyclic phosphodiesterase 10A (Rattus norvegicus, UniProt Q9QYJ6); test: Inhibition of rat PDE10A2 assessed as inhibition of cAMP hydrolysis by fluorescence polarization assay
T1 sequence (Q9QYJ6 whole entry): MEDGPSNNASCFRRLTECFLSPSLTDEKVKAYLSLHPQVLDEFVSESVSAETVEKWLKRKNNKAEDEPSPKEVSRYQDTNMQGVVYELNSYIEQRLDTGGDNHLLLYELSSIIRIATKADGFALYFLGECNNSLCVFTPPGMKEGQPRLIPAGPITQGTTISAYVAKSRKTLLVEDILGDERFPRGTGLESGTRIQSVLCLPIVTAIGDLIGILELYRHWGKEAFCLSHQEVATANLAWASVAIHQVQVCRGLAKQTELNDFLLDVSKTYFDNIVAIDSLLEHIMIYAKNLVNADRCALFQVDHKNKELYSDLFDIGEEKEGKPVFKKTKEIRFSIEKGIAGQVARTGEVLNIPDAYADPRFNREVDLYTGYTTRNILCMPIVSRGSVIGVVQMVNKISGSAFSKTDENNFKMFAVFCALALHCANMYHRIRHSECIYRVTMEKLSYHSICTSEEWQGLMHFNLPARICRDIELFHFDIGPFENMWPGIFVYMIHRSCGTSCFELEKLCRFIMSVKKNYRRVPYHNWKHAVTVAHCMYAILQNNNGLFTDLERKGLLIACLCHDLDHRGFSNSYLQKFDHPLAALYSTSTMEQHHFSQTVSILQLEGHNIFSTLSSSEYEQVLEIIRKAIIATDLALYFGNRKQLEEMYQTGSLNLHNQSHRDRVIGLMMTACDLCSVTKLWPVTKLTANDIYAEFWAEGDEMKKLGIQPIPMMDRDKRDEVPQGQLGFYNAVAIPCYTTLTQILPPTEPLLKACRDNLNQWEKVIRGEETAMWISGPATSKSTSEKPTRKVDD

[2] = Protein binding in orally dosed rat plasma after 2 hrs by UPLC-MS analysis; format: ADME, organism-based; conditions: route po, read-out: PPB (converted)
[3] = Protein binding in orally dosed dog plasma after 2 hrs by UPLC-MS analysis; format: ADME, organism-based, Canis lupus familiaris; conditions: route po, read-out: PPB (converted)
[4] = Protein binding in orally dosed rhesus monkey plasma after 4 hrs by UPLC-MS analysis; format: ADME, organism-based, Macaca mulatta; conditions: route po, read-out: PPB (converted)
[5] = Clearance in orally dosed rat after 2 hrs by UPLC-MS analysis; format: ADME, organism-based; conditions: in vivo, route po
[6] = Clearance in orally dosed dog after 2 hrs by UPLC-MS analysis; format: ADME, organism-based, Canis lupus familiaris; conditions: in vivo, route po
[7] = Clearance in orally dosed rhesus monkey after 4 hrs by UPLC-MS analysis; format: ADME, organism-based, Macaca mulatta; conditions: in vivo, route po
[8] = Half life in orally dosed rat after 2 hrs by UPLC-MS analysis; format: ADME, organism-based; conditions: in vivo, route po
[9] = Half life in orally dosed dog after 2 hrs by UPLC-MS analysis; format: ADME, organism-based, Canis lupus familiaris; conditions: in vivo, route po
[10] = Half life in orally dosed rhesus monkey after 4 hrs by UPLC-MS analysis; format: ADME, organism-based, Macaca mulatta; conditions: in vivo, route po
[11] = Bioavailability in orally dosed rat after 2 hrs by UPLC-MS analysis; format: ADME, organism-based; conditions: in vivo, route po
[12] = Bioavailability in orally dosed dog after 2 hrs by UPLC-MS analysis; format: ADME, organism-based, Canis lupus familiaris; conditions: in vivo, route po
[13] = Bioavailability in orally dosed rhesus monkey after 4 hrs by UPLC-MS analysis; format: ADME, organism-based, Macaca mulatta; conditions: in vivo, route po
[14] = test system: Rattus norvegicus; test: In-vivo increase of GluR1 S845 phosphorylation in membrane fraction of Wistar Hannover rat striatal tissues at 3 to 30 mg/kg, po after 2 hrs by Western blot analysis; format: functional, organism-based; conditions: Striatum, dose 3-30 mg/kg
[15] = test system: Rattus norvegicus; test: Effect on total levels of GluR1 protein in membrane fraction of Wistar Hannover rat striatal tissues at 3 to 30 mg/kg, po by Western blot analysis; format: functional, organism-based; conditions: Striatum, dose 3-30 mg/kg
[16] = test system: Rattus norvegicus; test: In-vivo increase of GluR1 S845 phosphorylation in membrane fraction of Wistar Hannover rat striatal tissues at 30 mg/kg, po after 2 hrs by Western blot analysis relative to control; format: functional, Striatum
[17] = test system: Rattus norvegicus; test: In-vivo increase of pGluR1/GluR1 ratios in membrane fraction of Wistar Hannover rat striatal tissues at 3 to 30 mg/kg, po after 2 hrs by Western blot analysis; format: functional, organism-based; conditions: Striatum, dose 3-30 mg/kg
[18] = test system: Rattus norvegicus; test: In-vivo increase of ERK in membrane fraction of Wistar Hannover rat striatal tissues at 30 mg/kg, po after 2 hrs by Western blot analysis relative to control; format: functional, organism-based; conditions: Striatum
[19] = test system: Rattus norvegicus; test: In-vivo increase of CREB phosphorylation in membrane fraction of Wistar Hannover rat striatal tissues at 10 mg/kg, po after 2 hrs by Western blot analysis relative to control; format: functional, Striatum
[20] = test system: Rattus norvegicus; test: Effect on concentration of cyclic nucleotides in Wistar Hannover rat striatal tissues at 3 to 30 mg/kg, po by Western blot analysis; format: functional, organism-based; conditions: Striatum, dose 3-30 mg/kg
[21] = test system: Rattus norvegicus; test: Effect on phosphorylation of proteins in other brain regions (prefrontal cortex and hippocampus) in Wistar Hannover rat at 3 to 30 mg/kg, po by Western blot analysis; format: functional, organism-based; conditions: dose 3-30 mg/kg
[22] = Total drug level in Wistar Hannover rat plasma at 0.1 mg/kg, po after 2 hrs by UPLC-MS analysis; format: ADME, organism-based
[23] = Total drug level in Wistar Hannover rat plasma at 0.3 mg/kg, po after 2 hrs by UPLC-MS analysis; format: ADME, organism-based
[24] = Total drug level in Wistar Hannover rat plasma at 1 mg/kg, po after 2 hrs by UPLC-MS analysis; format: ADME, organism-based
[25] = Total drug level in Wistar Hannover rat plasma at 3 mg/kg, po after 2 hrs by UPLC-MS analysis; format: ADME, organism-based
[26] = Total drug level in Wistar Hannover rat plasma at 10 mg/kg, po after 2 hrs by UPLC-MS analysis; format: ADME, organism-based
[27] = Total drug level in Wistar Hannover rat plasma at 30 mg/kg, po after 2 hrs by UPLC-MS analysis; format: ADME, organism-based

Question: For `COCCOc1nc(-c2ccc(Cl)nc2)nc2c1CN(C(=O)c1ncn3ccccc13)CC2` [THPP-1], which Ki [1] is on record?
Answer: Its Ki is 1.3 nM.

Question: And the fraction unbound at 2 h [2]?
Answer: The fraction unbound at 2 h was 0.018.

Question: And the fraction unbound at 2 h [3]?
Answer: Its fraction unbound at 2 h is 0.03.

Question: What about the fraction unbound at 4 h [4] of the same compound?
Answer: Its fraction unbound at 4 h is 0.012.

Question: And the CL/F [5]?
Answer: Its CL/F is 6 mL/min/kg.

Question: And the CL/F [6]?
Answer: The CL/F was 3.8 mL/min/kg.

Question: What about the CL/F [7] of the same compound?
Answer: The CL/F was 7.7 mL/min/kg.

Question: And the half-life [8]?
Answer: The half-life was 1.4 h.

Question: What about the half-life [9] of the same compound?
Answer: Its half-life is 7.2 h.

Question: What about the half-life [10] of the same compound?
Answer: The half-life was 1.4 h.

Question: What about the bioavailability [11] of the same compound?
Answer: Its bioavailability is 47%.

Question: What about the bioavailability [12] of the same compound?
Answer: Its bioavailability is 79%.

Question: What about the bioavailability [13] of the same compound?
Answer: The bioavailability was 31%.

Question: And the Activity [14]?
Answer: The Activity was “Dose-Dependent Effect”.

Question: What about the Activity [15] of the same compound?
Answer: The Activity was “inactive”.

Question: What about the “fold change (FC)” value [16] of the same compound?
Answer: The value was 9.5.

Question: What about the Activity [17] of the same compound?
Answer: The Activity was “Active”.

Question: What about the Activity [18] of the same compound?
Answer: Its Activity is “Dose-Dependent Effect”.

Question: And the “fold change (FC)” value [19]?
Answer: Its value is 2.3.

Question: And the Activity [20]?
Answer: The Activity was “inactive”.

Question: What about the Activity [21] of the same compound?
Answer: Its Activity is “inactive”.

Question: What about the concentration at 2 h [22] of the same compound?
Answer: Its concentration at 2 h is 32 nM.

Question: What about the concentration at 2 h [23] of the same compound?
Answer: The concentration at 2 h was 117 nM.

Question: What about the concentration at 2 h [24] of the same compound?
Answer: The concentration at 2 h was 270 nM.

Question: And the concentration at 2 h [25]?
Answer: The concentration at 2 h was 745 nM.

Question: What about the concentration at 2 h [26] of the same compound?
Answer: Its concentration at 2 h is 1320 nM.

Question: And the concentration at 2 h [27]?
Answer: The concentration at 2 h was 1800 nM.
